According to EP3046573B1, “AMYLIN ANALOGUES” (Zealand Pharma A/S, priority 2013, dated 2015):
Read-outs that look alike come from different tables or passages of the source. Numbered stars: 1 amine (or outer) side, 2 acyl side, 3 side chain; on linkers, the order of the positions; unused ones are H or OH. Bridge positions count the residues as written; N and C are the ends. Square brackets hold non-standard residues; d marks the D form. Peptide text beside a SMILES is read from it. * marks the point of attachment. C20 diacid = O=C(O)CCCCCCCCCCCCCCCCCCC(=O)*; γGlu = O=C(O)[C@H](CCC(=O)[*:2])N[*:1]; NMeI = CC[C@H](C)[C@H](NC)C(=O)O; Sar = CNCC(=O)O

How the values were obtained:
[1] = target: T1, human calcitonin receptor (hCTR2) (Homo sapiens, UniProt P30988); assay: hCTR2 assay: induction of cAMP (AlphaScreen cAMP Assay kit) in COS7 cells expressing hCTR2; format: cell-based
T1 construct: expressed in transfected cells
T1 sequence (P30988 25-474): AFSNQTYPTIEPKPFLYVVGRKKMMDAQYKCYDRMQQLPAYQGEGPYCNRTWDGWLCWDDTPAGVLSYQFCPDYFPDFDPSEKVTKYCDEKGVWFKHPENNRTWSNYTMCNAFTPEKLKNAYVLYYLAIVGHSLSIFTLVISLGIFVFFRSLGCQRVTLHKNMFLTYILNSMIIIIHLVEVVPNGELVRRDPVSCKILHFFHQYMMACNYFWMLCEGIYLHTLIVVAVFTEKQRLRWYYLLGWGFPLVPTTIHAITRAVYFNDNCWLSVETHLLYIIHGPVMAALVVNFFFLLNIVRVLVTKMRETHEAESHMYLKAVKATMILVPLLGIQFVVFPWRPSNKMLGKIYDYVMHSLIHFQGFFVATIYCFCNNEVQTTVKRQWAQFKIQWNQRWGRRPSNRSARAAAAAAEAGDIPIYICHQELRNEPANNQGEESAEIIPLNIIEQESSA
In short: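 Functional agonism is measured as cAMP accumulation in a COS7 line stably transfected with hCTR2, lacking endogenous RAMPs. Peptides act for 15 min at 37° C with IBMX present, and curves are fitted with a 4-parameter logistic model.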

[2] = Solubility assessment (turbidity absorbance at 325 nm); format: physicochemical; conditions: stock 2 mg/ml diluted 1:1, ambient temperature (typically 25°C), n=1; for Solubility, Acetate buffer pH 4: 100 mM acetate buffer pH 4.0; for Solubility, Acetate buffer pH 5: 100 mM acetate buffer pH 5.0; for Solubility, Histidine buffer pH 6: 100 mM histidine buffer pH 6.0; for Solubility, Histidine buffer pH 7: 100 mM histidine buffer pH 7.0; for Solubility, Phosphate buffer pH 6: 100 mM phosphate buffer pH 6.0; for Solubility, Phosphate buffer pH 7: 100 mM phosphate buffer pH 7.0; for Solubility, Phosphate buffer pH 7.5: 100 mM phosphate buffer pH7.5
In short: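 Stock 2 mg/ml peptide, H2O/HCl pH 2.5; 1:1 into 100 mM buffers: acetate pH 4.0/5.0, His pH 6.0/7.0, phosphate pH 6.0/7.0/7.5. A280 + A325, ~25°C, n=1. Soluble ≥ 1 mg/ml if A325 ≤ 0.02.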

[3] = cAMP induction in COS7 cells expressing hCTR2, average of a minimum of 3 determinations, read-out: hCTR2 EC50

| SMILES | EC50 [1, 3] | Solubility, Acetate buffer pH 4 [2] | Solubility, Acetate buffer pH 5 [2] | Solubility, Histidine buffer pH 6 [2] | Solubility, Histidine buffer pH 7 [2] | Solubility, Phosphate buffer pH 6 [2] | Solubility, Phosphate buffer pH 7 [2] | Solubility, Phosphate buffer pH 7.5 [2] | EC50 [1] |
| --- | --- | --- | --- | --- | --- | --- | --- | --- | --- |
| CC[C@H](C)[C@@H](C(=O)N[C@@H](CC(C)C)C(=O)N[C@@H](CO)C(=O)N[C@@H](CO)C(=O)N[C@H](C(=O)N[C@@H](CC(=O)O)C(=O)N[C@H](C(=O)NCC(=O)N[C@@H](CO)C(=O)N[C@@H](CCC(=O)O)C(=O)N[C@H](C(=O)N1CCC[C@H]1C(N)=O)[C@@H](C)O)C(C)C)[C@@H](C)O)N(C)C(=O)[C@H](C)NC(=O)CN(C)C(=O)[C@H](Cc1ccccc1)NC(=O)[C@H](CO)NC(=O)[C@H](CO)NC(=O)[C@H](CCCNC(=N)N)NC(=O)[C@H](Cc1c[nH]cn1)NC(=O)[C@H](CC(C)C)NC(=O)[C@H](Cc1ccccc1)NC(=O)[C@H](CCC(=O)O)NC(=O)[C@H](C)NC(=O)[C@H](CC(C)C)NC(=O)[C@H](CCCNC(=N)N)NC(=O)[C@H](CCC(N)=O)NC(=O)[C@@H](NC(=O)[C@H](C)NC(=O)[C@@H]1CSSC[C@H](NC(=O)[C@H](CCCNC(=N)N)NC(=O)CC[C@H](NC(=O)CCCCCCCCCCCCCCCCCCC(=O)O)C(=O)O)C(=O)N[C@@H](CC(N)=O)C(=O)N[C@@H]([C@@H](C)O)C(=O)N[C@@H](C)C(=O)N[C@@H]([C@@H](C)O)C(=O)N1)[C@@H](C)O [Compound 80, [19CD]-isoGlu-RC()NTATC()ATQRLAEFLHRSSF-Gly(Me)-A-Ile(Me)-LSSTDVGSETP-NH2] ({C20 diacid-γGlu}-RCNTATCATQRLAEFLHRSSF[Sar]A[NMeI]LSSTDVGSETP-NH2; disulfide 2-7) | 62 pM | SS (SS indicates solubility ≥ 1mg/ml) | SS (SS indicates solubility ≥ 1mg/ml) | II (II indicates solubility ≤ 1 mg/ml) | SS (SS indicates solubility ≥ 1mg/ml) | SS (SS indicates solubility ≥ 1mg/ml) | SS (SS indicates solubility ≥ 1mg/ml) | SS (SS indicates solubility ≥ 1mg/ml) |  |
| CC[C@H](C)[C@@H](C(=O)N[C@@H](CC(C)C)C(=O)N[C@@H](CO)C(=O)N[C@@H](CO)C(=O)N[C@H](C(=O)N[C@@H](CC(=O)O)C(=O)N[C@H](C(=O)NCC(=O)N[C@@H](CO)C(=O)N[C@@H](CC(=O)O)C(=O)N[C@H](C(=O)N1CCC[C@H]1C(N)=O)[C@@H](C)O)C(C)C)[C@@H](C)O)N(C)C(=O)[C@H](C)NC(=O)CN(C)C(=O)[C@H](Cc1ccccc1)NC(=O)[C@H](CO)NC(=O)[C@H](CO)NC(=O)[C@H](CCCNC(=N)N)NC(=O)[C@H](Cc1c[nH]cn1)NC(=O)[C@H](CC(C)C)NC(=O)[C@H](Cc1ccccc1)NC(=O)[C@H](CCC(=O)O)NC(=O)[C@H](C)NC(=O)[C@H](CC(C)C)NC(=O)[C@H](CCCNC(=N)N)NC(=O)[C@H](CCC(N)=O)NC(=O)[C@@H](NC(=O)[C@H](C)NC(=O)[C@@H]1CSSC[C@H](NC(=O)[C@H](CCCNC(=N)N)NC(=O)CC[C@H](NC(=O)CCCCCCCCCCCCCCCCCCC(=O)O)C(=O)O)C(=O)N[C@@H](CC(N)=O)C(=O)N[C@@H]([C@@H](C)O)C(=O)N[C@@H](C)C(=O)N[C@@H]([C@@H](C)O)C(=O)N1)[C@@H](C)O [Compound 81, [19CD]-isoGlu-RC()NTATC()ATQRLAEFLHRSSF-Gly(Me)-A-Ile(Me)-LSSTDVGSDTP-NH2] ({C20 diacid-γGlu}-RCNTATCATQRLAEFLHRSSF[Sar]A[NMeI]LSSTDVGSDTP-NH2; disulfide 2-7) | 57 pM | SS (SS indicates solubility ≥ 1mg/ml) | SS (SS indicates solubility ≥ 1mg/ml) | SS (SS indicates solubility ≥ 1mg/ml) | SS (SS indicates solubility ≥ 1mg/ml) | SS (SS indicates solubility ≥ 1mg/ml) | SS (SS indicates solubility ≥ 1mg/ml) | SS (SS indicates solubility ≥ 1mg/ml) |  |
| CC[C@H](C)[C@@H](C(=O)N[C@@H](CC(C)C)C(=O)N[C@@H](CO)C(=O)N[C@@H](CO)C(=O)N[C@H](C(=O)N[C@@H](CC(N)=O)C(=O)N[C@H](C(=O)NCC(=O)N[C@@H](CO)C(=O)N[C@@H](CC(N)=O)C(=O)N[C@H](C(=O)N1CCC[C@H]1C(N)=O)[C@@H](C)O)C(C)C)[C@@H](C)O)N(C)C(=O)[C@H](C)NC(=O)CN(C)C(=O)[C@H](Cc1ccccc1)NC(=O)[C@H](CC(N)=O)NC(=O)[C@H](CC(N)=O)NC(=O)[C@H](CO)NC(=O)[C@H](CO)NC(=O)[C@H](CCCNC(=N)N)NC(=O)[C@H](Cc1c[nH]cn1)NC(=O)[C@H](CC(C)C)NC(=O)[C@H](Cc1ccccc1)NC(=O)[C@H](CCC(=O)O)NC(=O)[C@H](C)NC(=O)[C@H](CC(C)C)NC(=O)[C@H](CCCNC(=N)N)NC(=O)[C@H](CCC(N)=O)NC(=O)[C@@H](NC(=O)[C@H](C)NC(=O)[C@@H]1CSSC[C@H](NC(=O)[C@H](CCCNC(=N)N)NC(=O)[C@H](Cc2c[nH]cn2)NC(=O)CC[C@H](NC(=O)CCCCCCCCCCCCCCCCCCC(=O)O)C(=O)O)C(=O)N[C@@H](CC(N)=O)C(=O)N[C@@H]([C@@H](C)O)C(=O)N[C@@H](C)C(=O)N[C@@H]([C@@H](C)O)C(=O)N1)[C@@H](C)O [Compound 85, [19CD]-isoGlu-HRC()NTATC()ATQRLAEFLHRSSNNF-Gly(Me)-A-Ile(Me)-LSSTNVGSNTP-NH2] ({C20 diacid-γGlu}-HRCNTATCATQRLAEFLHRSSNNF[Sar]A[NMeI]LSSTNVGSNTP-NH2; disulfide 3-8) |  | SS (SS indicates solubility ≥ 1mg/ml) | SS (SS indicates solubility ≥ 1mg/ml) | SS (SS indicates solubility ≥ 1mg/ml) | SS (SS indicates solubility ≥ 1mg/ml) | SS (SS indicates solubility ≥ 1mg/ml) | SS (SS indicates solubility ≥ 1mg/ml) | SS (SS indicates solubility ≥ 1mg/ml) | 83 pM |
| CC[C@H](C)[C@@H](C(=O)N[C@@H](CC(C)C)C(=O)N[C@@H](CO)C(=O)N[C@@H](CO)C(=O)N[C@H](C(=O)N[C@@H](CC(N)=O)C(=O)N[C@H](C(=O)NCC(=O)N[C@@H](CO)C(=O)N[C@@H](CC(N)=O)C(=O)N[C@H](C(=O)N1CCC[C@H]1C(N)=O)[C@@H](C)O)C(C)C)[C@@H](C)O)N(C)C(=O)[C@H](C)NC(=O)CN(C)C(=O)[C@H](Cc1ccccc1)NC(=O)[C@H](CC(N)=O)NC(=O)[C@H](CC(N)=O)NC(=O)[C@H](CO)NC(=O)[C@H](CO)NC(=O)[C@H](CCCNC(=N)N)NC(=O)[C@H](Cc1c[nH]cn1)NC(=O)[C@H](CC(C)C)NC(=O)[C@H](Cc1ccccc1)NC(=O)[C@H](CCC(=O)O)NC(=O)[C@H](C)NC(=O)[C@H](CC(C)C)NC(=O)[C@H](CCCNC(=N)N)NC(=O)[C@H](CCC(N)=O)NC(=O)[C@@H](NC(=O)[C@H](C)NC(=O)[C@@H]1CSSC[C@H](NC(=O)[C@H](CCCCN)NC(=O)[C@H](CCCNC(=N)N)NC(=O)CC[C@H](NC(=O)CCCCCCCCCCCCCCCCCCC(=O)O)C(=O)O)C(=O)N[C@@H](CC(N)=O)C(=O)N[C@@H]([C@@H](C)O)C(=O)N[C@@H](C)C(=O)N[C@@H]([C@@H](C)O)C(=O)N1)[C@@H](C)O [Compound 86, [19CD]-isoGlu-RKC()NTATC()ATQRLAEFLHRSSNNF-Gly(Me)-A-Ile(Me)-LSSTNVGSNTP-NH2] ({C20 diacid-γGlu}-RKCNTATCATQRLAEFLHRSSNNF[Sar]A[NMeI]LSSTNVGSNTP-NH2; disulfide 3-8) |  | SS (SS indicates solubility ≥ 1mg/ml) | SS (SS indicates solubility ≥ 1mg/ml) | SS (SS indicates solubility ≥ 1mg/ml) | SS (SS indicates solubility ≥ 1mg/ml) | SS (SS indicates solubility ≥ 1mg/ml) | SS (SS indicates solubility ≥ 1mg/ml) | SS (SS indicates solubility ≥ 1mg/ml) | 65 pM |
